Several values for one entry are separate records, joined by “and”; a condition that tells them apart may be missing. Equal entries are not always repeated. Where two headings read alike, the source gives them in different places.
Columns and labels:
5-HT2A receptor = target: T1, 5-HT2A receptor (Homo sapiens, UniProt P28223); assay: Functional assay for 5-HT2A receptor (aequorin, CHO-K1 cells); assay type: cell-based
T1 construct: expressed in transfected cells; host or cells: CHO-K1
Protocol: Test compounds were dissolved in dimethyl sulfoxide (DMSO) at a concentration of 10 mM. Serial dilutions were prepared in a 96-well microplate in assay buffer and eight concentrations were tested. A cellular aequorin-based functional assay was performed with recombinant CHO-K1 cells expressing mitochondrially targeted aequorin, human GPCR and the promiscuous G protein α16 for 5-HT2A. […] After thawing, cells were transferred to assay buffer (DMEM/HAM’s F12 with 0.1% protease-free BSA) and centrifuged. The cell pellet was resuspended in assay buffer and coelenterazine h was added at final concentrations of 5 μM. […] After 1 h of incubation, 50 μL of the cells suspension was dispensed using automatic injectors built into the plate reader POLARstar Omega, (BMG Labtech, Ortenberg, Germany) onto a white opaque 96-well microplates preloaded with test compounds. Immediate light emission generated following calcium mobilization was recorded for 30 s. In antagonist mode, after 30 min of incubation, the reference agonist was added to the above assay mix and light emission was recorded again. The final concentration of the reference agonist was equal to EC80.

[1] = Pharmacokinetics and tissue distribution in rats; assay type: in vivo, rat; settings: for MRT / CL/F / Vz/F: rat serum; for MRT / half-life / Tmax / CL/F / Cmax / AUC(0-t) / AUC(0-inf) / Vz/F / AUC0-t, brain / AUC0-t, liver / AUC0-t, lungs / Cmax, heart / Cmax, kidneys / Cmax, liver / Cmax, lungs / AUC0-t, heart / AUC0-t, kidneys / Cmax, brain / t1/2λz, serum: 0.3 mg/kg i.p.; for Kp: intraperitoneal; for Cmax / AUC(0-t) / AUC(0-inf): mean ± SD; for AUC(0-t): read-out: AUC0-t, serum (converted); for AUC(0-inf): read-out: AUC0-∞, serum (converted)
Protocol: To assess pharmacokinetic profile and tissue penetration of 2 and 3, the male Wistar rats were a single intraperitoneal (i.p.) injected with these compounds dissolved in tween (vehicle volume 1 mL/kg) at a dose of 0.3 mg/kg, determined in behavioral studies. The animals were killed by decapitation under deep anesthesia (i.p. injection of 50 mg/kg ketamine and 7.5 mg/kg xylazine) at 5, 15, 30, 60, 120 and 240 min after compounds administration (four animals per time point) and blood samples (approximately 5–6 mL) were collected into tubes. Moreover, five tissues (i.e., brain, heart, lungs, kidneys and liver) were harvested, rinsed with cold saline, and the wet weights determined. Blood was allowed to clot for 15–20 min at room temperature and then centrifuged (3000 rpm for 10 min). The obtained serum and tissues were stored frozen at −80 °C until analysis.
The concentrations of both test compounds in serum and tissue homogenates were measured by a reverse-phase high-performance liquid chromatography method with ultraviolet detection (HPLC/UV). […] The mobile phase consisted of methanol/10 mM potassium dihydrogen phosphate buffer, pH 4.6/acetonitrile (51/40/9, v/v/v). The isocratic separation was performed at 1.0 mL/min constant flow-rate with column temperature maintained at 38 °C. The detection wavelength was set at 206 nm for 2 and at 215 nm for 3. […] EZChrome Elite v. 3.3.2 software (VWR, Darmstadt, Germany) was used for data acquisition.
Before analysis, tissue samples were thawed, placed in four volumes (w/v) of phosphate-buffered saline (PBS, pH 7.4) and homogenized using a MICCRA D-1 homogenizer (ART Prozess- & Labortechnik GmbH & Co., Heitersheim, Germany). To isolate 2 or 3, 500 µL of rat serum or tissue homogenate containing this compound were mixed with a 20-μL volume of IS solution (50 ng/mL or 200 ng/g in methanol). As an IS for compound 2 quantification, compound 3 was used and vice versa.
The samples were alkalized with 50 μL of 4 M sodium hydroxide solution, vortex-mixed, and extracted with 1 mL of ethyl acetate/hexane (30/70, v/v) mixture on a shaker (VXR Vibrax, IKA, Legnica, Poland) for 20 min. After centrifugation (Eppendorf, Mini Spin Plus, Hamburg, Germany), the organic layers were transferred into new tubes containing 100 μL of methanol and 0.1 M sulfuric acid (10/90, v/v) mixture. Then, the samples were shaken and centrifuged again. Finally, 20–90 μL of each acidic layer was injected into the HPLC system.
Other pharmacokinetic parameters were determined on subjecting the concentration–time data to non-compartmental analysis using Phoenix WinNonlin 8.2 software (Pharsight Corporation, a Certara Company, Princeton, NJ, USA).

[2] = test system: neuroblastoma SH-SY5Y cells; assay: Neurotoxicity in SH-SY5Y (MTS and LDH assays); assay type: cell-based, human; settings: 100 μM, 48 h, vs control cells
Protocol: Human neuroblastoma cell line SH-SY5Y (ATCC® no. CRL-2266™) was used for neurotoxicity evaluation. […] To perform dose–response analysis, 2-fold serial dilutions (12 points) were prepared. Treatment with compounds was performed for 48 h. After the incubation time, 100μL of culture medium was transferred to black well plates to examined membrane integrity using the CytoTox-ONE™ Homogeneous Membrane Integrity Assay (Promega, Madison, WI, USA) following the manufacturer’s protocol. Briefly, a volume of 100 µL CytoTox-ONE™ reagent was added to each well and carefully mixed under gentle shaking. […] The plate was incubated at room temperature for 15 min and the fluorescence was then recorded at an excitation wavelength of 560 nm and an emission wavelength of 590 nm using the microplate reader EnSpire (PerkinElmer, Waltham, MA, USA). […] Cytotoxicity is expressed as a percentage relative to the positive control, which is assumed to be responsible for 100% LDH release.
The cell viability was examined using an MTS-based [3-(4,5-dimethylthiazol-2-yl)-5-(3-carboxymethoxyphenyl)-2-(4-sulfophenyl)-2 H tetrazolium] […] After incubation time, formazan product turnover absorbance was measured at 490 nm using the microplate reader EnSpire (PerkinElmer, Waltham, MA, USA). […]

[3] = male, Wistar, rat, brain (vs serum), 0.3 mg/kg, AUC0-t tissue / AUC0-t serum, read-out: Kp, brain
[4] = male, Wistar, rat, brain, ip, 0.3 mg/kg, rat, read-out: elimination half-life, brain tissue
[5] = male, Wistar, rat, heart / serum, 0.3 mg/kg, AUC0-t tissue / AUC0-t serum, read-out: Kp, heart
[6] = male, Wistar, rat, heart, ip, 0.3 mg/kg, rat, read-out: Tmax, heart (converted)
[7] = male, Wistar, rat, kidneys (vs serum), 0.3 mg/kg, AUC0-t tissue / AUC0-t serum, read-out: Kp, kidneys
[8] = male, Wistar, rat, kidneys, ip, 0.3 mg/kg, rat, read-out: Tmax, kidneys (converted)
[9] = male, Wistar, rat, liver (vs serum), 0.3 mg/kg, AUC0-t tissue / AUC0-t serum, read-out: Kp, liver
[10] = male, Wistar, rat, liver, ip, 0.3 mg/kg, rat, read-out: Tmax, liver (converted)
[11] = male, Wistar, rat, lungs / serum, 0.3 mg/kg, AUC0-t tissue / AUC0-t serum, read-out: Kp, lungs
[12] = male, Wistar, rat, lungs, ip, 0.3 mg/kg, rat, read-out: Tmax, lungs (converted)
[13] = male, Wistar, rat, serum, ip, 0.3 mg/kg, read-out: CL/F (converted)
[14] = male, Wistar, rat, serum, ip, 0.3 mg/kg, rat, read-out: Tmax, serum (converted)
[15] = male, Wistar, rat, serum, ip, 0.3 mg/kg, rat, read-out: t1/2λz, serum

T1 sequence (P28223 whole entry): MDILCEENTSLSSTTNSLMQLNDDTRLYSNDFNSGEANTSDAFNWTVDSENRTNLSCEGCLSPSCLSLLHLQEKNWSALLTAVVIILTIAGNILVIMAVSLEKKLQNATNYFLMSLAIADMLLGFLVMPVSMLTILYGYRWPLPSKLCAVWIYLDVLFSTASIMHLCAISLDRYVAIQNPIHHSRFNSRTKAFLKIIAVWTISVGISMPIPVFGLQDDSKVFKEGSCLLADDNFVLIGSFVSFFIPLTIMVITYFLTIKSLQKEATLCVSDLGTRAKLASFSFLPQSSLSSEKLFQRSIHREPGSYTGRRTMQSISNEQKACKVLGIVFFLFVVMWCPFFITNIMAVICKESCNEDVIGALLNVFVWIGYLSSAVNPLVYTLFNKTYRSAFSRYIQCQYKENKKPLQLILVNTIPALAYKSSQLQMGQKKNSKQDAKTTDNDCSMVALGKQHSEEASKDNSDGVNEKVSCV

SMILES | Kp, brain ([1]; AUC0-t tissue / AUC0-t serum) | MRT ([1]; male, Wistar, ip) [min] | Kp [1, 3] | half-life [1, 4] [min] | Kp [1, 5] | Tmax [1, 6] [min] | Kp [1, 7] | Tmax [1, 8] [min] | Kp [1, 9] | Tmax [1, 10] [min] | Kp [1, 11] | Tmax [1, 12] [min] | CL/F [1, 13] [mL/min/kg] | Tmax [1, 14] [min] | half-life [1, 15] [min] | Cmax ([1]; male, Wistar, serum, ip, rat) [ng/mL] | AUC(0-t) ([1]; male, Wistar, serum, ip, rat) [ng·h/mL] | AUC(0-inf) ([1]; male, Wistar, serum, ip, rat) [ng·h/mL] | CL/F ([1]; 0.3 mg/kg) [mL/min/kg] | Vz/F ([1]; 0.3 mg/kg) | also measured
CCC(Oc1cccc(Cl)c1Cl)c1nc(N)nc(N2CCN(C)CC2)n1 (racemic) [Compound 2, (RS)-4-[1-(2,3-dichlorophenoxy)propyl]-6-(4-methylpiperazin-1-yl)-1,3,5-triazin-2-amine] | 2.69 | 90.1 | 2.03 | 149 | 2.3 | 5 | 16.5 | 15 | 14.4 | 15 | 8.54 | 5 | 515 | 15 | 116 | 5.2 ± 2.24 | 7.56 | 8.85 | 514.5 ± 165 | 81 L/kg and 80.99 ^a ± 18.22 L/kg | Emax (5-HT2A receptor; Table S2, read-out: 5-HT2A Antagonist mode Emax): 1%; Emax (5-HT2A receptor; read-out: 5-HT2AR Agonist Mode Emax): 21 ± 0.6%; Kp, kidneys ([1]; AUC0-t tissue / AUC0-t serum): 16.52; AUC0-t, brain ([1]; rat): 1219.94 ± 368.79 ng·min/mL or ng·min/g; AUC0-t, liver ([1]; rat): 6523.60 ± 4997.28 ng·min/mL or ng·min/g; AUC0-t, lungs ([1]; rat): 3870.66 ± 680.07 ng·min/mL or ng·min/g; Cmax, heart ([1]; rat): 8.90 ± 8.15 ng/mL or ng/g; Cmax, kidneys ([1]; rat): 65.73 ± 34.94 ng/mL or ng/g; Cmax, liver ([1]; rat): 115.22 ± 93.46 ng/mL or ng/g; Cmax, lungs ([1]; rat): 54.20 ± 21.61 ng/mL or ng/g; AUC0-t, heart ([1]; rat, 0.3 mg/kg): 1040.7 ng·min/mL or ng·min/g and 1040.74 ± 448.65 ng·min/mL or ng·min/g; AUC0-t, kidneys ([1]; rat, 0.3 mg/kg): 7488.1 ng·min/mL or ng·min/g and 7488.06 ± 4372.92 ng·min/mL or ng·min/g; Cmax, brain ([1]; rat, 0.3 mg/kg): 11.63 ± 3.13 ng/mL or ng/g; t1/2λz, serum ([1]; rat, 0.3 mg/kg): 116 min and 116.18 ^a ± 17.14 min; increase of LDH leakage [2]: 86%
CCC(Oc1ccccc1)c1nc(N)nc(N2CCN(C)CC2)n1 (racemic) [Compound 3, (RS)-4-(4-methylpiperazin-1-yl)-6-(1-phenoxypropyl)-1,3,5-triazin-2-amine] | 2.03 | 79.3 | 2.63 | 112 | 2.49 | 5 | 6.03 | 15 | 10.5 | 5 | 6.41 | 5 | 587 | 5 | 76.7 | 6.32 ± 5.03 | 7.07 | 8.53 | 586 ± 298.7 | 65 L/kg and 64.81 ± 21.78 L/kg | Kp, liver ([1]; AUC0-t tissue / AUC0-t serum): 10.54; Tmax ([1]; male, Wistar, rat, brain, ip, 0.3 mg/kg, rat, read-out: Tmax, brain (converted)): 5 min; AUC0-t, heart ([1]; rat): 1057.37 ± 285.41 ng·min/mL or ng·min/g; AUC0-t, kidneys ([1]; rat): 2557.08 ± 1084.42 ng·min/mL or ng·min/g; AUC0-t, lungs ([1]; rat): 2715.09 ± 1000.42 ng·min/mL or ng·min/g; Cmax, heart ([1]; rat): 21.83 ± 17.16 ng/mL or ng/g; Cmax, kidneys ([1]; rat): 41.25 ± 8.41 ng/mL or ng/g; Cmax, liver ([1]; rat): 129.62 ± 106.23 ng/mL or ng/g; Cmax, lungs ([1]; rat): 73.65 ± 63.94 ng/mL or ng/g; AUC0-t, brain ([1]; rat, 0.3 mg/kg): 859.1 ng·min/mL or ng·min/g and 859.08 ± 312.87 ng·min/mL or ng·min/g; AUC0-t, liver ([1]; rat, 0.3 mg/kg): 4467.2 ng·min/mL or ng·min/g and 4467.18 ± 2249.99 ng·min/mL or ng·min/g; Cmax, brain ([1]; rat, 0.3 mg/kg): 11.35 ± 6.93 ng/mL or ng/g; t1/2λz, serum ([1]; rat, 0.3 mg/kg): 77 min and 76.65 ± 18.07 min

From publication PMC8509428, “The Phenoxyalkyltriazine Antagonists for 5-HT6 Receptor with Promising Procognitive and Pharmacokinetic Properties In Vivo in Search for a Novel Therapeutic Approach to Dementia Diseases” (International Journal of Molecular Sciences, 2021)
